Results on 17 compounds are retold here after patent US20210130346A1, “Bromodomain Inhibitors” (AbbVie Inc., priority 2017, published 2021).

One may read the Ki as a dissociation constant, usually derived from enzyme kinetics or from competition with a known ligand.

A value given as a limit tells only on which side of the number the result lay.

The target in the experiment is BRD4 (BDI_K57-E168) (Homo sapiens, UniProt O60885). Description: TR-FRET bromodomain binding assay, BRD4 first bromodomain (BDI). The note with it: mean Ki; 12 nM His tagged BRD4 (BDI_K57-E168), 100 nM Alexa647 probe; Ki calculated from IC50, probe Kd and probe concentration. As to the method:
A time-resolved fluorescence resonance energy transfer (TR-FRET) assay was used to determine the affinities of compounds of the Examples listed in Table 1 for each bromodomain of BRD4. […] An Alexa647-labeled BET-inhibitor was used as the fluorescent probe in the assay.
Compound dilution series were prepared in DMSO via an approximately 3-fold serial dilution. Compound dilutions were added directly into white, low-volume assay plates (Perkin Elmer Proxiplate 384 Plus# 6008280) using a Labcyte Echo in conjunction with Labcyte Access and Thermo Multidrop CombinL robotics. Compounds were then suspended in eight microliters (μL) of assay buffer (20 mM Sodium Phosphate, pH 6.0, 50 mM NaCl, 1 mM Ethylenediaminetetraacetic acid disodium salt dihydrate, 0.01% Triton X-100, 1 mM DL-Dithiothreitol) containing His-tagged bromodomain, Europium-conjugated anti-His antibody (Invitrogen PV5596) and Alexa-647-conjugated probe.
After a one-hour equilibration at room temperature, TR-FRET ratios were determined using an Envision multilabel plate reader (Ex 340, Em 495/520).
TR-FRET data were normalized to the means of 24 no-compound controls (“high”) and 8 controls containing 1 μM un-labeled probe (“low”). Percent inhibition was plotted as a function of compound concentration and the data were fit with the 4 parameter logistic equation to obtain IC50s. Inhibition constants (Ki) were calculated from the IC50s, probe Kd and probe concentration.
Turning to `CCNC(=O)c1cc2c([C@@H]3C[C@@]34C(=O)N(C)c3ccccc34)cn(C)c(=O)c2[nH]1` (racemic) [Example 1, rac-N-ethyl-6-methyl-4-[(1R,2S)-1′-methyl-2′-oxo-1′,2′-dihydrospiro[cyclopropane-1,3′-indol]-2-yl]-7-oxo-6,7-dihydro-1H-pyrrolo[2,3-c]pyridine-2-carboxamide], the inhibition constant (Ki) is 6.08 µM. For the compound `CN1C(=O)[C@@]2(C[C@H]2c2cn(C)c(=O)c3[nH]c(C(=O)NC4CC4)cc23)c2ccccc21` (racemic) [Example 2, rac-N-cyclopropyl-6-methyl-4-[(1R,2S)-1′-methyl-2′-oxo-1′,2′-dihydrospiro[cyclopropane-1,3′-indol]-2-yl]-7-oxo-6,7-dihydro-1H-pyrrolo[2,3-c]pyridine-2-carboxamide], the inhibition constant Ki is 5.42 µM. As for `CN1C(=O)[C@@]2(C[C@H]2c2cn(C)c(=O)c3[nH]c(C(=O)NC4CC(F)(F)C4)cc23)c2ccccc21` (racemic) [Example 5, rac-N-(3,3-difluorocyclobutyl)-6-methyl-4-[(1R,2S)-1′-methyl-2′-oxo-1′,2′-dihydrospiro[cyclopropane-1,3′-indol]-2-yl]-7-oxo-6,7-dihydro-1H-pyrrolo[2,3-c]pyridine-2-carboxamide], the inhibitory constant (Ki) is 5.45 µM. Under `CN1C(=O)[C@@]2(C[C@H]2c2cn(C)c(=O)c3[nH]c(C(=O)Nc4ccccc4)cc23)c2ccccc21` (racemic) [Example 8, rac-6-methyl-4-[(1R,2S)-1′-methyl-2′-oxo-1′,2′-dihydrospiro[cyclopropane-1,3′-indol]-2-yl]-7-oxo-N-phenyl-6,7-dihydro-1H-pyrrolo[2,3-c]pyridine-2-carboxamide] stands over 13 µM. In the case of `COc1ccc(NC(=O)c2cc3c([C@@H]4C[C@@]45C(=O)N(C)c4ccccc45)cn(C)c(=O)c3[nH]2)cc1` (racemic) [Example 9, rac-N-(4-methoxyphenyl)-6-methyl-4-[(1R,2S)-1′-methyl-2′-oxo-1′,2′-dihydrospiro[cyclopropane-1,3′-indol]-2-yl]-7-oxo-6,7-dihydro-1H-pyrrolo[2,3-c]pyridine-2-carboxamide] it was 4.68 µM; in that of `CN1C(=O)[C@@]2(C[C@H]2c2cn(C)c(=O)c3[nH]c(C(=O)Nc4cccc(CO)c4)cc23)c2ccccc21` (racemic) [Example 10, rac-N-[3-(hydroxymethyl)phenyl]-6-methyl-4-[(1R,2S)-1′-methyl-2′-oxo-1′,2′-dihydrospiro[cyclopropane-1,3′-indol]-2-yl]-7-oxo-6,7-dihydro-1H-pyrrolo[2,3-c]pyridine-2-carboxamide], 2.05 µM; in that of `CN1C(=O)[C@@]2(C[C@H]2c2cn(C)c(=O)c3[nH]c(C(=O)NC4CC4)cc23)c2ccc(F)cc21` (racemic) [Example 11, rac-N-cyclopropyl-4-[(1R,2S)-6′-fluoro-1′-methyl-2′-oxo-1′,2′-dihydrospiro[cyclopropane-1,3′-indol]-2-yl]-6-methyl-7-oxo-6,7-dihydro-1H-pyrrolo[2,3-c]pyridine-2-carboxamide], 7.38 µM. Regarding `CN1C(=O)[C@@]2(C[C@H]2c2cn(C)c(=O)c3[nH]c(C(=O)NC4CC4)cc23)c2ccc(Cl)cc21` (racemic) [Example 12, rac-4-[(1R,2S)-6′-chloro-1′-methyl-2′-oxo-1′,2′-dihydrospiro[cyclopropane-1,3′-indol]-2-yl]-N-cyclopropyl-6-methyl-7-oxo-6,7-dihydro-1H-pyrrolo[2,3-c]pyridine-2-carboxamide], the inhibition constant Ki is 4.53 µM. In the case of `Cc1ccc2c(c1)N(C)C(=O)[C@@]21C[C@H]1c1cn(C)c(=O)c2[nH]c(C(=O)NC3CC3)cc12` (racemic) [Example 13, rac-N-cyclopropyl-4-[(1R,2S)-1′,6′-dimethyl-2′-oxo-1′,2′-dihydrospiro[cyclopropane-1,3′-indol]-2-yl]-6-methyl-7-oxo-6,7-dihydro-1H-pyrrolo[2,3-c]pyridine-2-carboxamide] it was 2.95 µM; in that of `COc1ccc2c(c1)N(C)C(=O)[C@@]21C[C@H]1c1cn(C)c(=O)c2[nH]c(C(=O)NC3CC3)cc12` (racemic) [Example 14, rac-N-cyclopropyl-4-[(1R,2S)-6′-methoxy-1′-methyl-2′-oxo-1′,2′-dihydrospiro[cyclopropane-1,3′-indol]-2-yl]-6-methyl-7-oxo-6,7-dihydro-1H-pyrrolo[2,3-c]pyridine-2-carboxamide], 4.8 µM.

Regarding `CN1C(=O)[C@@]2(C[C@H]2c2cn(C)c(=O)c3[nH]c(C(=O)NC4CC4)cc23)c2ccc(OC(F)(F)F)cc21` (racemic) [Example 15, rac-N-cyclopropyl-6-methyl-4-[(1R,2S)-1′-methyl-2′-oxo-6′-(trifluoromethoxy)-1′,2′-dihydrospiro[cyclopropane-1,3′-indol]-2-yl]-7-oxo-6,7-dihydro-1H-pyrrolo[2,3-c]pyridine-2-carboxamide], the Ki was 3.63 µM. Turning to `CN1C(=O)[C@@]2(C[C@H]2c2cn(C)c(=O)c3[nH]c(C(=O)NC4CC4)cc23)c2cc(F)ccc21` (racemic) [Example 16, rac-N-cyclopropyl-4-[(1R,2S)-5′-fluoro-1′-methyl-2′-oxo-1′,2′-dihydrospiro[cyclopropane-1,3′-indol]-2-yl]-6-methyl-7-oxo-6,7-dihydro-1H-pyrrolo[2,3-c]pyridine-2-carboxamide], the Ki is 9.95 µM. On to `Cn1cc([C@@H]2C[C@@]23C(=O)Nc2ccccc23)c2cc(C(=O)NC3CC3)[nH]c2c1=O` (racemic) [Example 19, rac-N-cyclopropyl-6-methyl-7-oxo-4-[(1R,2S)-2′-oxo-1′,2′-dihydrospiro[cyclopropane-1,3′-indol]-2-yl]-6,7-dihydro-1H-pyrrolo[2,3-c]pyridine-2-carboxamide], for which the Ki is over 13 µM.

In the case of `CCN1C(=O)[C@@]2(C[C@H]2c2cn(C)c(=O)c3[nH]c(C(=O)NC4CC4)cc23)c2ccccc21` (racemic) [Example 22, rac-N-cyclopropyl-4-[(1R,2S)-1′-ethyl-2′-oxo-1′,2′-dihydrospiro[cyclopropane-1,3′-indol]-2-yl]-6-methyl-7-oxo-6,7-dihydro-1H-pyrrolo[2,3-c]pyridine-2-carboxamide], the inhibition constant (Ki) was 4 µM. Turning to `Cn1cc(C2CC23C(=O)N(CC(F)(F)F)c2ccccc23)c2cc(C(=O)NC3CC3)[nH]c2c1=O` (racemic) [Example 23, rac-N-cyclopropyl-6-methyl-7-oxo-4-[(1R,2S)-2′-oxo-′-(2,2,2-trifluoroethyl)-1′,2′-dihydrospiro[cyclopropane-1,3′-indol]-2-yl]-6,7-dihydro-1H-pyrrolo[2,3-c]pyridine-2-carboxamide], the inhibition constant (Ki) is over 13 µM. Take `Cn1cc([C@@H]2C[C@@]23C(=O)N(C2CC2)c2ccccc23)c2cc(C(=O)NC3CC3)[nH]c2c1=O` (racemic) [Example 26, rac-N-cyclopropyl-4-[(1R,2S)-1′-cyclopropyl-2′-oxo-1′,2′-dihydrospiro[cyclopropane-1,3′-indol]-2-yl]-6-methyl-7-oxo-6,7-dihydro-1H-pyrrolo[2,3-c]pyridine-2-carboxamide]: the Ki was 9.22 µM.

As for `COCCN1C(=O)[C@@]2(C[C@H]2c2cn(C)c(=O)c3[nH]c(C(=O)NC4CC4)cc23)c2ccccc21` (racemic) [Example 27, rac-N-cyclopropyl-4-[(1R,2S)-1′-(2-methoxyethyl)-2′-oxo-1′,2′-dihydrospiro[cyclopropane-1,3′-indol]-2-yl]-6-methyl-7-oxo-6,7-dihydro-1H-pyrrolo[2,3-c]pyridine-2-carboxamide], the Ki was over 13 µM.
